Test results published in patent publication US11820782B2, “Salt forms of amino pyrazine purine based selective kinase inhibitor” (FTG BIO LLC, priority 2018, dated 2023).
In brackets after ≈: the same amount, converted by molar mass. Like-named read-outs stand apart in the source and are kept apart here.

Legend:
[1] = Qualitative solubility of FT1518 in aqueous media containing counterions; type: physicochemical
Source text: Solubility of FT-1518 was checked in various counter ion solutions before performing salt screening to obtain an estimate of feasibility of salt formation in the respective counter ions.

[2] = Qualitative (kinetic/visual) solubility in solvents/media; type: physicochemical
Experimental: 2 mg quantity of API was taken in glass vial and small portions of solvent was added with vortexing till the clear solution is obtained (at room temperature or heating up to 50-60° C.).
Weighed quantity of API was taken in glass vial and small portions of solvent was added with vortexing till the clear solution is obtained (at room temperature or heating up to 50-60° C.).

[3] = system: U-87 (giloblastoma, epithelial); assay: Anti-proliferative effect, U-87; type: cell-based
Experimental: (§1) All in vitro experiments like protein binding, microsomal stability, cell cytotoxicity were performed as per study protocols of respective experiments.

[4] = Microsomal stability, RLM; type: in vitro ADME; details: rat liver microsomes
Experimental: as §1

Caco-2 [5] = system: Caco-2
[6] = Microsomal stability, MLM; type: in vitro ADME; details: 3 μM (n = 3), mice liver microsomes
Experimental: as §1

Hepatic clearance, human = type: in vitro ADME
Caco-2 permeability = details: human, Caco-2
Caco-2 [7] = assay: Caco-2 permeability
Hepatic clearance, dog = type: in vitro ADME; details: dogs
[8] = Plasma protein binding, mouse; type: in vitro ADME; details: mouse, plasma, 10 μM (n = 4); read-out: % Bound, Mouse plasma (converted)
Experimental: as §1

[9] = Solid state stability of physical forms at 40° C./75% RH by pXRD; type: physicochemical; details: 40° C./75% RH open, 7 days
Experimental: Physical forms crystallized from various methods of crystallization were exposed to 40° C./75% RH for 7 days in open condition to understand the physical stability of the new physical forms in the presence of heat and humidity and also to know if there is any form conversion in the stable forms of Esylate and oxalate salts of FT-1518.

[10] = Plasma protein binding, human; type: in vitro ADME; details: human, plasma, 10 μM (n = 4); read-out: % Bound, Human Plasma (converted)
Experimental: as §1

Hepatic clearance, mouse = type: in vitro ADME
Hepatic clearance, rat = type: in vitro ADME
prostate cancer (PC-3) = assay: In vitro assay, PC-3; type: cell-based; details: prostate cancer (PC-3) line
Experimental: as §1

[11] = sample from cooling crystallization in ethanol
[12] = sample from slurry transformation in ethyl acetate
[13] = sample from solvent evaporation in acetonitrile
[14] = sample from solvent evaporation in ethanol

CCC(CC)n1cnc2c(-c3cnc(N)cn3)nc(N3CC4CCC(C3)O4)nc21 [FT-1518 base]
Solubility ([1]; 0.04N phthalic acid): <1000 µg/mL | Solubility ([1]; 0.1N H2SO4): >100000 µg/mL | Solubility ([1]; 0.1N adipic acid): <1000 µg/mL | solubility (descriptive term) ([2]; 0.11N HCl): soluble | Solubility ([2]; 1,4-dioxane): >100000 µg/mL | solubility (descriptive term) ([2]; 1,4-dioxane): freely soluble | Solubility ([2]; Dimethyl sulphoxide): >100000 µg/mL | solubility (descriptive term) ([2]; Dimethyl sulphoxide): freely soluble | Solubility ([2]; N,N-dimethyl acetamide): >100000 µg/mL | solubility (descriptive term) ([2]; N,N-dimethyl acetamide): freely soluble | Solubility ([2]; N-methyl pyrrolidone): >100000 µg/mL | solubility (descriptive term) ([2]; N-methyl pyrrolidone): freely soluble | Solubility ([2]; Purified water): <1000 µg/mL | Solubility ([2]; Tetrahydrofuran): >100000 µg/mL | solubility (descriptive term) ([2]; Tetrahydrofuran): freely soluble | solubility (descriptive term) ([2]; acetone): freely soluble | solubility (descriptive term) ([2]; acetonitrile): soluble | Solubility ([2]; dichloromethane): >100000 µg/mL | solubility (descriptive term) ([2]; dichloromethane): freely soluble | Solubility ([2]; diethyl ether): <1000 µg/mL | solubility (descriptive term) ([2]; diethyl ether): insoluble | Solubility ([2]; ethanol): >100000 µg/mL | solubility (descriptive term) ([2]; ethanol): freely soluble | solubility (descriptive term) ([2]; ethyl acetate): soluble | solubility (descriptive term) ([2]; isopropyl acetate): soluble | solubility (descriptive term) ([2]; isopropyl alcohol): freely soluble | Solubility ([2]; methanol): >100000 µg/mL | solubility (descriptive term) ([2]; methanol): freely soluble | solubility (descriptive term) ([2]; methyl tertiary butyl ether): slightly soluble | Solubility ([2]; n-heptane): <1000 µg/mL | solubility (descriptive term) ([2]; n-heptane): insoluble | Solubility ([2]; n-hexane): <1000 µg/mL | solubility (descriptive term) ([2]; n-hexane): insoluble | solubility (descriptive term) ([2]; purified water, listed as FT1518): practically insoluble | solubility (descriptive term) ([2]; purified water, listed as FT-1518): insoluble | solubility (descriptive term) ([2]; toluene): soluble | IC50 [3]: > 10 µM | Invitro T1/2, RLM ([4]; 3 μM (n = 3)): >60 min | stability in RLM [4]: ✓ FT1518, FT 1518-Esylate and FT1518-Oxalate was highly stable in PHLM and RLM | Apparent permeability (Papp) A to B (Caco-2 [5]): 21.571 ± 1.767 ×10⁻⁶ cm/s | Apparent permeability (Papp) B to A (Caco-2 [5]): 30.94 ± 0.428 ×10⁻⁶ cm/s | permeability in Caco-2 assay (Caco-2 [5]): ✓ FT1518 base, FT1518-Esylate and FT1518-Oxalate showed high permeability in Caco-2 assay. Efflux ratio of <2 indicates compounds that the compounds may not be substrates of P-gp or BCRP efflux transporters | Invitro T1/2, MLM [6]: 43 min

CCC(CC)n1cnc2c(-c3cnc(N)cn3)nc(N3CC4CCC(C3)O4)nc21 [FT-1518-Esylate]
hepatic clearance in terms of liver blood flow (Hepatic clearance, human): moderate | efflux ratio at 10 μM (Caco-2 permeability): 1.8 | Papp A→B at 10 μM (Caco-2 permeability; Caco-2, Apparent permeability (Papp) A to B, 10 μM (n = 3)): 21.6 ± 0.887 ×10⁻⁶ cm/s | Papp B→A at 10 μM (Caco-2 permeability; Caco-2, Apparent permeability (Papp) B to A, 10 μM (n = 3)): 38.3 ± 0.426 ×10⁻⁶ cm/s | permeability in Caco-2 assay (Caco-2 [7]): ✓ FT1518 base, FT1518-Esylate and FT1518-Oxalate showed high permeability in Caco-2 assay. Efflux ratio of <2 indicates compounds that the compounds may not be substrates of P-gp or BCRP efflux transporters | hepatic clearance in terms of liver blood flow (Hepatic clearance, dog): low | fraction unbound at 10 μM [8]: 0.0854 | solid state stability (pXRD form) [9, 11]: remained the same | solid state stability (pXRD form) ([9]; sample from slurry transformation in THF: toluene (1:1)): Same as initial salt | solid state stability (pXRD form) ([9]; sample from slurry transformation in THF): Same as initial salt | solid state stability (pXRD form) [9, 12]: 40 °C slurry converted | solid state stability (pXRD form) ([9]; sample from slurry transformation in toluene): Same as initial salt | solid state stability (pXRD form) ([9]; sample from solvent evaporation in THF:water (9:1)): Same as initial salt | solid state stability (pXRD form) [9, 13]: Same as initial salt | solid state stability (pXRD form) [9, 14]: formed Same as initial salt | solid state stability (pXRD form) ([9]; sample from solvent evaporation in methanol): Same as initial salt | fraction unbound at 10 μM [10]: 0.0298 | Solubility ([2]; N-methyl pyrrolidone, organic solvent or mixture, thermodynamic from solid, N-methyl pyrrolidone, read-out: Solubility): > 100000 µg/mL | Solubility ([2]; Tetrahydrofuran): <1000 µg/mL | Solubility ([2]; acetone, organic solvent or mixture, thermodynamic from solid, Acetone, read-out: Solubility): < 1000 µg/mL | Solubility ([2]; acetonitrile, organic solvent or mixture, thermodynamic from solid, Acetonitrile, read-out: Solubility): > 100000 µg/mL | Solubility ([2]; dimethyl sulphoxide, organic solvent or mixture, thermodynamic from solid, Dimethyl sulphoxide, read-out: Solubility): > 100000 µg/mL | Solubility ([2]; ethyl acetate, organic solvent or mixture, thermodynamic from solid, Ethyl acetate, read-out: Solubility): < 1000 µg/mL | Solubility ([2]; isopropyl alcohol (2-propanol), organic solvent or mixture, thermodynamic from solid, Isopropyl alcohol (2-propanol), read-out: Solubility): 10000 to 25000 µg/mL (≈ 25.3 to 63.4 mM) | Solubility ([2]; n-hexane, organic solvent or mixture, thermodynamic from solid, n-hexane, read-out: Solubility): < 1000 µg/mL | Solubility ([2]; toluene, organic solvent or mixture, thermodynamic from solid, Toluene, read-out: Solubility): < 1000 µg/mL | IC50 [3]: > 10 µM | half-life at 3 μM ([4]; 3 μM (n = 3), read-out: Invitro T1/2, RLM): > 60 min | stability in RLM [4]: ✓ FT1518, FT 1518-Esylate and FT1518-Oxalate was highly stable in PHLM and RLM | hepatic clearance in terms of liver blood flow (Hepatic clearance, mouse): high | hepatic clearance in terms of liver blood flow (Hepatic clearance, rat): low | half-life at 3 μM ([6]; mouse, mouse liver microsomes, read-out: Invitro T1/2, MLM): 24 min

CCC(CC)n1cnc2c(-c3cnc(N)cn3)nc(N3CC4CCC(C3)O4)nc21 [FT-1518-Oxalate]
hepatic clearance in terms of liver blood flow (Hepatic clearance, human): moderate | permeability in Caco-2 assay (Caco-2 [7]): ✓ FT1518 base, FT1518-Esylate and FT1518-Oxalate showed high permeability in Caco-2 assay. Efflux ratio of <2 indicates compounds that the compounds may not be substrates of P-gp or BCRP efflux transporters | Apparent permeability (Papp) A to B (Caco-2 [7]; 10 μM (n = 3), Caco-2): 23.207 ± 1.801 ×10⁻⁶ cm/s | Apparent permeability (Papp) B to A (Caco-2 [7]; 10 μM (n = 3), Caco-2): 29.203 ± 1.482 ×10⁻⁶ cm/s | hepatic clearance in terms of liver blood flow (Hepatic clearance, dog): low | solid state stability (pXRD form) [9, 11]: Same as initial salt | solid state stability (pXRD form) ([9]; sample from cooling crystallization in tetrahydrofuran): Same as initial salt | solid state stability (pXRD form) ([9]; sample from slurry transformation in ethyl acetate: water (9:1)): remained same | solid state stability (pXRD form) [9, 12]: Same as initial | solid state stability (pXRD form) ([9]; sample from slurry transformation in hexane): Same as initial | solid state stability (pXRD form) ([9]; sample from solvent evaporation in acetone): Same as initial salt form | solid state stability (pXRD form) [9, 13]: Same as initial salt | solid state stability (pXRD form) [9, 14]: Partial conversion of new | solid state stability (pXRD form) ([9]; sample from solvent evaporation in tetrahydrofuran): Major conversion of new | Solubility ([2]; Dimethyl sulphoxide): >100000 µg/mL | Solubility ([2]; N-methyl pyrrolidone): >100000 µg/mL | Solubility ([2]; dichloromethane): <1000 µg/mL | Solubility ([2]; ethyl acetate): <1000 µg/mL | Solubility ([2]; n-hexane): <1000 µg/mL | Solubility ([2]; toluene): <1000 µg/mL | IC50 [3]: > 10 µM | Invitro T1/2, RLM ([4]; 3 μM (n = 3)): >60 min | stability in RLM [4]: ✓ FT1518, FT 1518-Esylate and FT1518-Oxalate was highly stable in PHLM and RLM | hepatic clearance in terms of liver blood flow (Hepatic clearance, mouse): moderate | IC50 (prostate cancer (PC-3)): 183 µM | hepatic clearance in terms of liver blood flow (Hepatic clearance, rat): moderate | Invitro T1/2, MLM [6]: 46 min
